These results are taken from patent US8568801B2, “Solid oral sensorial products including stain inhibitor” (Philip Morris USA Inc., priority 2010, dated 2013).

Each structure is given as a SMILES string.

The nature of experiment [1]: Hydroxyapatite powder soaked in Burley tobacco extract with various amounts of sodium hexametaphosphate. The note with it: FIG. 13. The protocol: To determine the effect of various amount of sodium hexametaphosphate, 5.0 grams of Burley tobacco was soaked in 100 mL water at room temperature for 1 hour to form a first extract. A second extract was formed by soaking 5.0 grams of Burley tobacco and […] sodium hexametaphosphate in 100 mL water at room temperature for 1 hour. A third extract was formed by soaking 5.0 grams of Burley tobacco and 0.252 g sodium hexametaphosphate in 100 mL water at room temperature for 1 hour. A fourth extract was formed by soaking 5.0 grams of Burley tobacco and 0.047 g sodium hexametaphosphate in 100 mL water at room temperature for 1 hour. Each extract was then filtered through #2 Watman filter paper. Approximately […] of hydroxyapatite powder was placed in the bottom of each of four centrifuge vials. 14 mL of the first extract was placed in the first vial, 14 mL of the second extract was placed in the second vial, 14 mL of the third extract was placed in the third vial and 14 mL of the fourth extract was placed in the fourth vial. The powder in each vial was allowed to soak for about 1 hour with agitation and then the powder was decanted, washed in distilled water at least three times and decanted each time.

Experiment [2] is described as follows: Hydroxyapatite powder washed in phosphate, then soaked in Burley tobacco extract. The settings on record: compared with unwashed HAP powder and with HAP powder first washed in dibasic sodium phosphate; FIG. 11.
The nature of experiment [3]: Hydroxyapatite powder soaked in tea extract. The note with it: 5.0 g tea and 50 mg sodium hexametaphosphate in 100 mL water, room temperature, about 1 hour; FIG. 12. The protocol:
A second extract was formed by soaking 5.0 g of tea in 100 mL water at room temperature for about 1 hour. Each extract was then filtered through #2 Watman filter paper. Approximately 152 mg of hydroxyapatite powder was placed in the bottom of each of two centrifuge vials. 14 mL of the first extract was placed in one vial and 14 mL of the second extract was placed in the second vial.

The nature of experiment [4]: Cow's teeth staining by extract of Burley tobacco pouches. The settings on record: as printed, the tobacco-only tooth is the darker one; inhibitor extract from 50 mg sodium hexametaphosphate and 5.0 g Burley tobacco; 5 soaks; FIG. 10. The protocol: (§1) To determine the effectiveness of the phosphate containing stain inhibitor on solid oral sensorial products including tobacco, 187.5 mL artificial saliva and 75 pouches containing 5.0 g Burley tobacco were placed in a bag in a water bath at 100° F. for 3 minutes. The artificial saliva was formed as part of a 1000 mL batch including 4.20 g sodium bicarbonate, 0.50 g sodium chloride and 0.20 g potassium carbonate. The bag was removed and rolled for about 2 minutes and then returned to the water bath for 10 minutes. This process was repeated four more times (five total). The pouches were then removed from the bag and 50 mL of the Burley tobacco extract was placed in a 250 mL crystallization beaker. Cow's teeth were then immersed in the 50 mL of extract, the beaker was covered with polypropylene wrap, and the teeth were soaked for 7 minutes at about 100° F. The teeth were removed from the beaker and rinsed with reverse osmosis water for about 5 seconds. The front enamel of each tooth was brushed with 1 g of Crest® Cavity Protection toothpaste for 30 seconds, rinsed with reverse osmosis water and covered to prevent exposure to light. This regime was repeated 4 additional times (5 total). A second extract was made using pouches including 5.0 g Burley tobacco and 50 mg sodium hexametaphosphate. […]

Experiment [5] can be described thus: Cow's teeth staining by extract of tea pouches, simulating 6 months of use. The settings on record: extract of pouches with 5.0 g tea and 50 mg sodium hexametaphosphate; 5 soaks of 7 minutes at about 100° F. with brushing; FIG. 9. The protocol:
as §1, with “on” for “on solid”, “tea, a test was performed to simulate 6 months of use of the oral sensorial products. About” for “tobacco,”, “tea” for “Burley tobacco”, “the” for “the Burley tobacco”

`O=P1([O-])OP(=O)([O-])OP(=O)([O-])OP(=O)([O-])OP(=O)([O-])OP(=O)([O-])O1.[Na+].[Na+].[Na+].[Na+].[Na+].[Na+]` [sodium hexametaphosphate]: the “color of powders soaked in extracts with larger amounts of sodium hexametaphosphate compared with smaller amounts” value in experiment [1] (25.080 g, 0.252 g and 0.047 g sodium hexametaphosphate with 5.0 g Burley tobacco in 100 mL water) is listed as “lighter in color”. The “color of powder soaked in Burley tobacco extract alone compared with powders soaked in extracts including sodium hexametaphosphate” value in experiment [1] (as printed, the tobacco-only powder is the darker one, 5.0 g Burley tobacco with 25.080 g, 0.252 g or 0.047 g sodium hexametaphosphate in 100 mL water) is “visibly darker”. Further, in experiment [2], the “color of HAP powder first washed in the phosphate and then soaked in Burley tobacco extract” value is “visibly whiter”. In experiment [3], the “color of HAP powder soaked in extract of tea and sodium hexametaphosphate compared with tea alone” value is given as “visibly whiter”. Also, in experiment [4], the “color of cow's tooth soaked in Burley tobacco extract alone compared with tooth soaked in extract with sodium hexametaphosphate” value is “visibly darker”. Further, the “color of cow's teeth exposed to sodium hexametaphosphate and tea compared with teeth exposed to tea alone” value in experiment [5] is reported as “noticeably lighter in color”.
